# Experimental data from PMC2932867 (Human mutation, 2010).
# T1: human ATR (ATP:cob(I)alamin adenosyltransferase; hATR) (Homo sapiens, UniProt Q96EY8)
# T1 sequence (Q96EY8 33-250): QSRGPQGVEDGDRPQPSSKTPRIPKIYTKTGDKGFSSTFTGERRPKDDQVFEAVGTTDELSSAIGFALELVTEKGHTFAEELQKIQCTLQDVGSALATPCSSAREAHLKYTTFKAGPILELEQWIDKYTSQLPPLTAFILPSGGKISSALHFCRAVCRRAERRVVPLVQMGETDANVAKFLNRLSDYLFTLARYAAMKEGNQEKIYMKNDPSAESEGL
# T2: human ATR (ATP:cob(I)alamin adenosyltransferase; hATR) (Homo sapiens, UniProt Q96EY8, I96T)
# T2 sequence (Q96EY8 33-250 I96T): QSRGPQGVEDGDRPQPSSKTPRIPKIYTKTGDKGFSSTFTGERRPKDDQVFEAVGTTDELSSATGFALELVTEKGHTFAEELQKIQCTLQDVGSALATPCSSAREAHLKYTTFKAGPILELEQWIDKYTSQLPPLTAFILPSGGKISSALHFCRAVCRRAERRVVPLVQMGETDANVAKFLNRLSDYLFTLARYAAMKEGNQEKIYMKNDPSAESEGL
# How the values were obtained:
# [1] = molecular target: T1, human ATR (ATP:cob(I)alamin adenosyltransferase; hATR); assay: intrinsic fluorescence titration; type: binding; conditions: read-out: wild-type; 50 mM Tris-HCl pH 8.0
# [2] = molecular target: T2, human ATR (ATP:cob(I)alamin adenosyltransferase; hATR); assay: intrinsic fluorescence titration; type: binding; conditions: read-out: p.I96T; 50 mM Tris-HCl pH 8.0
# SEC = molecular target: the molecule itself; assay: SEC
Kd [1],Kd [2],Molecule,stoichiometry N (SEC)
7.8 ± 0.5 µM,13.3 ± 0.3 µM,CNCbl,
,,"ATP:cob(I)alamin adenosyltransferase p.I96T mutant, human, without the mitochondrial targeting sequence (enzyme, UniProt Q96EY8 33-250, looked up) QSRGPQGVEDGDRPQPSSKTPRIPKIYTKTGDKGFSSTFTGERRPKDDQVFEAVGTTDELSSATGFALELVTEKGHTFAEELQKIQCTLQDVGSALATPCSSAREAHLKYTTFKAGPILELEQWIDKYTSQLPPLTAFILPSGGKISSALHFCRAVCRRAERRVVPLVQMGETDANVAKFLNRLSDYLFTLARYAAMKEGNQEKIYMKNDPSAESEGL",3
